The first experiment addresses Escherichia coli DNA gyrase A/B tetramer (Escherichia coli (strain K12), UniProt P0AES4+P0AES6). The experiment is described as follows: DNA gyrase supercoiling activity fluorescence polarisation assay. It counts as biochemical.
Conditions: not given
As for the experimental part:
DNA Gyrase Supercoiling Activity Fluorescence Polarisation Assay
The supercoiling reactions may be quenched by the addition of 10 microliters/well of 40 nM oligodeoxynucleotide probe in 3× triplex-forming buffer consisting of 150 mM NaCl, and 150 mM sodium acetate at pH 3.5. The oligodeoxynucleotide probe may be 5′-BODIPY-FL-labeled […]. After 60 minutes, the fluorescence anisotropy of the BODIPY-FL may be measured in a Tecan Ultra plate reader, using 485 nm excitation and 535 nm emission filters equipped with polarizers. The IC50 may be determined by nonlinear regression using two control reactions. The first contains no test compound but 0.8% DMSO (100% activity) while the second control reaction contains 5 μM Ciprofloxacin and 0.8% DMSO (0% activity).
A general note: Polarisation of emitted light reports the rotation of a fluorescent probe.
As a reminder, the IC50 is the concentration that inhibits the measured activity by half. The molecule `C[C@@H]1CN2c3c(cc4c(N5CCCCC5)noc4c3F)CC3(C(=O)NC(=O)NC3=O)[C@H]2[C@H](C)O1` (relative stereo) [Example 21] registered an IC50 of 2400 nM.

Staying with this experiment, now noted: 5 nM enzyme, relaxed plasmid, 0.3 mM ATP, ambient temperature; read-out: E. coli DNA gyrase supercoiling IC50.
For `Cc1cc(CNc2noc3c(F)c4c(cc23)CC2(C(=O)NC(=O)NC2=O)[C@H]2[C@H](C)O[C@H](C)CN42)no1` (relative stereo) [Example 13, (2R,4S,4aS)-rel-11-fluoro-2,4-dimethyl-8-{[(5-methyl-1,2-oxazol-3-yl)methyl]amino}-1,2,4,4a-tetrahydro-2′H,6H-spiro[1,4-oxazino[4,3-a][1,2]oxazolo[4,5-g]quinoline-5,5′-pyrimidine]-2′,4′,6′(1′H,3′H)-trione], the IC50 turned out to be 1700 nM. Turning to `C[C@@H]1CN2c3c(cc4c(NCc5cccnc5)noc4c3F)CC3(C(=O)NC(=O)NC3=O)[C@H]2[C@H](C)O1` (relative stereo) [Example 15, (2R,4S,4aS)-rel-11-fluoro-2,4-dimethyl-8-[(pyridin-3-ylmethyl)amino]-1,2,4,4a-tetrahydro-2′H,6H-spiro[1,4-oxazino[4,3-a][1,2]oxazolo[4,5-g]quinoline-5,5′-pyrimidine]-2′,4′,6′(1′H,3′H)-trione], the 50% inhibitory concentration (IC50) amounted to 1000 nM. `C[C@@H]1CN2c3c(cc4c(NCc5ccncc5)noc4c3F)CC3(C(=O)NC(=O)NC3=O)[C@H]2[C@H](C)O1` (relative stereo) [Example 16, (2R,4S,4aS)-rel-11-fluoro-2,4-dimethyl-8-[(pyridin-4-ylmethyl)amino]-1,2,4,4a-tetrahydro-2′H,6H-spiro[1,4-oxazino[4,3-a][1,2]oxazolo[4,5-g]quinoline-5,5′-pyrimidine]-2′,4′,6′(1′H,3′H)-trione]: the 50% inhibitory concentration (IC50) was 2400 nM. Take `C[C@@H]1CN2c3c(cc4c(NCC5CC5)noc4c3F)CC3(C(=O)NC(=O)NC3=O)[C@H]2[C@H](C)O1` (relative stereo) [Example 17, (2R,4S,4aS)-rel-8-[(cyclopropylmethyl)amino]-11-fluoro-2,4-dimethyl-1,2,4,4a-tetrahydro-2′H,6H-spiro[1,4-oxazino[4,3-a][1,2]oxazolo[4,5-g]quinoline-5,5′-pyrimidine]-2′,4′,6′(1′H,3′H)-trione]: the IC50 was determined as 1400 nM. Still for that read-out and setting: the result for `C[C@@H]1CN2c3c(cc4c(NCC5CCCCC5)noc4c3F)CC3(C(=O)NC(=O)NC3=O)[C@H]2[C@H](C)O1` (relative stereo) [Example 18, (2R,4S,4aS)-rel-8-[(cyclohexylmethyl)amino]-11-fluoro-2,4-dimethyl-1,2,4,4a-tetrahydro-2′H,6H-spiro[1,4-oxazino[4,3-a][1,2]oxazolo[4,5-g]quinoline-5,5′-pyrimidine]-2′,4′,6′(1′H,3′H)-trione] reads 2900 nM; that for `C[C@@H]1CN2c3c(cc4c(NCC5CCOCC5)noc4c3F)CC3(C(=O)NC(=O)NC3=O)[C@H]2[C@H](C)O1` (relative stereo) [Example 19, (2R,4S,4aS)-rel-11-fluoro-2,4-dimethyl-8-[(tetrahydro-2H-pyran-4-ylmethyl)amino]-1,2,4,4a-tetrahydro-2′H,6H-spiro[1,4-oxazino[4,3-a][1,2]oxazolo[4,5-]quinoline-5,5′-pyrimidine]-2′,4′,6′(1′H,3′H)-trione], 2900 nM; that for `C[C@@H]1CN2c3c(cc4c(N5CCN(C(=O)OC(C)(C)C)CC5)noc4c3F)CC3(C(=O)NC(=O)NC3=O)[C@H]2[C@H](C)O1` (relative stereo) [Example 20, tert-butyl 4-[(2R,4S,4aS)-rel-11-fluoro-2,4-dimethyl-2′,4′,6′-trioxo-1,1′,2,3′,4,4′,4a,6′-octahydro-2′H,6H-spiro[isoxazolo[4,5-g][1,4]oxazino[4,3-a]quinoline-5,5′-pyrimidin]-8-yl]piperazine-1-carboxylate], 20000 nM. Still for that read-out and setting: the same measure for `C[C@@H]1CN2c3c(cc4c(N5CCOCC5)noc4c3F)CC3(C(=O)NC(=O)NC3=O)[C@H]2[C@H](C)O1` (relative stereo) [Example 22, (2R,4S,4aS)-rel-11-fluoro-2,4-dimethyl-8-(morpholin-4-yl)-1,2,4,4a-tetrahydro-2′H,6H-spiro[isoxazolo[4,5-g][1,4]oxazino[4,3-a]quinoline-5,5′-pyrimidine]-2′,4′,6′(1′H,3′H)-trione]: 2600 nM; for `CCN(CC)c1noc2c(F)c3c(cc12)CC1(C(=O)NC(=O)NC1=O)[C@H]1[C@H](C)O[C@H](C)CN31` (relative stereo) [Example 23, (2R,4S,4aS)-rel-8-(diethylamino)-11-fluoro-2,4-dimethyl-1,2,4,4a-tetrahydro-2′H,6H-spiro[isoxazolo[4,5-g][1,4]oxazino[4,3-a]quinoline-5,5′-pyrimidine]-2′,4′,6′(1′H,3′H)-trione]: 4300 nM. The same measure, in the same setting: the result for `C[C@@H]1CN2c3c(cc4c(N(C)C)noc4c3F)CC3(C(=O)NC(=O)NC3=O)[C@H]2[C@H](C)O1` (relative stereo) [Example 24, (2R,4S,4aS)-rel-8-(dimethylamino)-11-fluoro-2,4-dimethyl-1,2,4,4a-tetrahydro-2′H,6H-spiro[isoxazolo[4,5-g][1,4]oxazino[4,3-a]quinoline-5,5′-pyrimidine]-2′,4′,6′(1′H,3′H)-trione] reads 300 nM; that for `C[C@@H]1CN2c3c(cc4c(N5CCCC5)noc4c3F)CC3(C(=O)NC(=O)NC3=O)[C@H]2[C@H](C)O1` (relative stereo) [Example 25, (2R,4S,4aS)-rel-11-fluoro-2,4-dimethyl-8-(pyrrolidin-1-yl)-1,2,4,4a-tetrahydro-2′H,6H-spiro[isoxazolo[4,5-g][1,4]oxazino[4,3-a]quinoline-5,5′-pyrimidine]-2′,4′,6′(1′H,3′H)-trione], 1500 nM. For the molecule `C[C@@H]1CN2c3c(cc4c(N5CCCCCC5)noc4c3F)CC3(C(=O)NC(=O)NC3=O)[C@H]2[C@H](C)O1` (relative stereo) [Example 26, (2R,4S,4aS)-rel-8-(azepan-1-yl)-11-fluoro-2,4-dimethyl-1,2,4,4a-tetrahydro-2′H,6H-spiro[isoxazolo[4,5-g][1,4]oxazino[4,3-a]quinoline-5,5′-pyrimidine]-2′,4′,6′(1′H,3′H)-trione], the IC50 worked out at 3700 nM. On the same count and under the same terms, the result for `Cc1cc(C(F)(F)F)nn1-c1noc2c(F)c3c(cc12)CC1(C(=O)NC(=O)NC1=O)[C@H]1[C@H](C)O[C@H](C)CN31` (relative stereo) [Example 27, (2R,4S,4aS)-rel-11-fluoro-2,4-dimethyl-8-[5-methyl-3-(trifluoromethyl)-1H-pyrazol-1-yl]-1,2,4,4a-tetrahydro-2′H,6H-spiro[isoxazolo[4,5-g][1,4]oxazino[4,3-a]quinoline-5,5′-pyrimidine]-2′,4′,6′(1′H,3′H)-trione] reads 7100 nM; that for `CC(=O)Nc1ccn(-c2noc3c(F)c4c(cc23)CC2(C(=O)NC(=O)NC2=O)[C@H]2[C@H](C)O[C@H](C)CN42)n1` (relative stereo) [Example 28, N-{1-[(2R,4S,4aS)-rel-11-fluoro-2,4-dimethyl-2′,4′,6′-trioxo-1,1′,2,3′,4,4′,4a,6′-octahydro-2′H,6H-spiro[1,4-oxazino[4,3-a][1,2]oxazolo[4,5-g]quinoline-5,5′-pyrimidin]-8-yl]-1H-pyrazol-3-yl}acetamide], 3100 nM. On the same count and under the same terms, the same measure for `Cc1cc(C(F)F)nn1-c1noc2c(F)c3c(cc12)CC1(C(=O)NC(=O)NC1=O)[C@H]1[C@H](C)O[C@H](C)CN31` (relative stereo) [Example 30, (2R,4S,4aS)-rel-8-[3-(difluoromethyl)-5-methyl-1H-pyrazol-1-yl]-11-fluoro-2,4-dimethyl-1,2,4,4a-tetrahydro-2′H,6H-spiro[isoxazolo[4,5-g][1,4]oxazino[4,3-a]quinoline-5,5′-pyrimidine]-2′,4′,6′(1′H,3′H)-trione]: 5400 nM; for `CCCNc1noc2c(F)c3c(cc12)CC1(C(=O)NC(=O)NC1=O)[C@H]1[C@H](C)O[C@H](C)CN31` (relative stereo) [Example 31, (2R,4S,4aS)-rel-11-fluoro-2,4-dimethyl-8-(propylamino)-1,2,4,4a-tetrahydro-2′H,6H-spiro[1,4-oxazino[4,3-a][1,2]oxazolo[4,5-g]quinoline-5,5′-pyrimidine]-2′,4′,6′(1′H,3′H)-trione]: 2200 nM; for `C[C@@H]1CN2c3c(cc4c(N(C)Cc5ccccc5)noc4c3F)CC3(C(=O)NC(=O)NC3=O)[C@H]2[C@H](C)O1` (relative stereo) [Example 32, (2R,4S,4aS)-rel-8-[benzyl(methyl)amino]-11-fluoro-2,4-dimethyl-1,2,4,4a-tetrahydro-2′H,6H-spiro[1,4-oxazino[4,3-a][1,2]oxazolo[4,5-g]quinoline-5,5′-pyrimidine]-2′,4′,6′(1′H,3′H)-trione]: 600 nM.

For `C[C@@H]1CN2c3c(cc4c(-n5cc(C#N)c(N)n5)noc4c3F)CC3(C(=O)NC(=O)NC3=O)[C@H]2[C@H](C)O1` (relative stereo) [Example 33, 3-amino-1-[(2R,4S,4aS)-rel-11-fluoro-2,4-dimethyl-2′,4′,6′-trioxo-1,1′,2,3′,4,4′,4a,6′-octahydro-2′H,6H-spiro[1,4-oxazino[4,3-a][1,2]oxazolo[4,5-g]quinoline-5,5′-pyrimidin]-8-yl]-1H-pyrazole-4-carbonitrile], the concentration for half-maximal inhibition (IC50) is 1000 nM.

On to `C[C@@H]1CN2c3c(cc4c(-n5cc(-c6ccncn6)cn5)noc4c3F)CC3(C(=O)NC(=O)NC3=O)[C@H]2[C@H](C)O1` (relative stereo) [Example 34, (2R,4S,4aS)-rel-11-fluoro-2,4-dimethyl-8-[4-(pyrimidin-4-yl)-1H-pyrazol-1-yl]-1,2,4,4a-tetrahydro-2′H,6H-spiro[1,4-oxazino[4,3-a][1,2]oxazolo[4,5-g]quinoline-5,5′-pyrimidine]-2′,4′,6′(1′H,3′H)-trione], for which the IC50 was 16300 nM.

For the origin of these results see patent US9040528B2, “Chemical compounds 542” (AstraZeneca AB, priority 2008, dated 2015).
